According to patent publication US20250326769A1, “HETEROAROMATIC MACROCYCLIC ETHER CHEMOTHERAPEUTIC AGENTS” (Nuvalent, Inc., priority 2022, published 2025):
Like-named read-outs stand apart in the source and are kept apart here.

Assays:
Ba/F3 ETV6-TRKB = Ba/F3 ETV6-TRKB (Homo sapiens, UniProt Q16620); experiment: Ba/F3 cell proliferation assay, ETV6-TRKB; assay type: cell-based
Method in brief: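 Ba/F3 cells retrovirally transduced with ETV6-TRKB and selected for IL-3-independent growth with puromycin were treated with 3-fold compound dilutions for 72 h. Viability read by CellTiter-Glo luminescence; IC50 from percent inhibition by four-parameter logistic fit.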

[1] = biological target: Ba/F3 EML4-ALK v1 I1171N/D1203N (Homo sapiens (Human), UniProt Q9HC35+Q9UM73, D1203N/I1171N); experiment: Ba/F3 cell proliferation assay, EML4-ALK v1 I1171N/D1203N; assay type: cell-based; conditions: for IC50: Ba/F3 stable cells, 72 hours, CellTiter-Glo; for ETV6-TRKB / EML4-ALK v1 I1171N/D1203N: TRKB selectivity, ratio of Ba/F3 IC50 values
Ba/F3 EML4-ALK v1 I1171N/D1203N, sequence (Q9UM73 other isoform, or with tags, fused parts or gaps I1171N/D1203N): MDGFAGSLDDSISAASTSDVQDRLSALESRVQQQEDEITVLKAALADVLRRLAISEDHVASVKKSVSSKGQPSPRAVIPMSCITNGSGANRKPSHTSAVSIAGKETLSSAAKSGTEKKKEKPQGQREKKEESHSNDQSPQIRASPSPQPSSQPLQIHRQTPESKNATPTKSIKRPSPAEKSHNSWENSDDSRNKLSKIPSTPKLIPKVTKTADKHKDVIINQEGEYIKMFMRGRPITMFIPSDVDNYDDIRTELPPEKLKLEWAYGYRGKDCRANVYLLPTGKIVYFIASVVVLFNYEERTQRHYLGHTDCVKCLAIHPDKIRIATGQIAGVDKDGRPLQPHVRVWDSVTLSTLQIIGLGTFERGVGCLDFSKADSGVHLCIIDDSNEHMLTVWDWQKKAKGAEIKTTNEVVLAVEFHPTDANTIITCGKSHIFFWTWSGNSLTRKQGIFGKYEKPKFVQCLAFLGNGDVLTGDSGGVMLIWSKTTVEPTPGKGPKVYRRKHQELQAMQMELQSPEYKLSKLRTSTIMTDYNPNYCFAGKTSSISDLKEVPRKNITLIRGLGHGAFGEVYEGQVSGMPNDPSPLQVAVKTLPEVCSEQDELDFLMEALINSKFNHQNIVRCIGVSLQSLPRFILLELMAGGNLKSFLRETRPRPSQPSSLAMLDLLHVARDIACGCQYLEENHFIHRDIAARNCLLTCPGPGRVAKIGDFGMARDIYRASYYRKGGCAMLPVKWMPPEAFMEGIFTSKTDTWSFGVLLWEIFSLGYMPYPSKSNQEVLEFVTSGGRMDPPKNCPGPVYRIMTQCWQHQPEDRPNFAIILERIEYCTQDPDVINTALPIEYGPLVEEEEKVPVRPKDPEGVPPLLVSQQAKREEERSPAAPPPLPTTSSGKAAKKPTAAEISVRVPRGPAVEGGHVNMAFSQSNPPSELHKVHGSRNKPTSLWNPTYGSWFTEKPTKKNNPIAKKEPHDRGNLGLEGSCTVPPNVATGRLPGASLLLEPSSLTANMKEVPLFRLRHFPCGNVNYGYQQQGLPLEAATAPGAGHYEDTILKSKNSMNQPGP
Method in brief: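 Ba/F3 cells made IL-3-independent by retroviral EML4-ALK v1 I1171N/D1203N and selected with puromycin, then treated with 3-fold compound dilutions for 72 h. Viability by CellTiter-Glo luminescence; IC50 from four-parameter logistic fit.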

TRKB-wt = TRKB-wt (Homo sapiens (Human), UniProt Q16620); experiment: Biochemical kinase assay, TRKB-wt; conditions: apparent inhibitory constant, kinase domain, Morrison equation; read-out: TRKB-wt Ki^app
TRKB-wt, sequence (Q16620 538-807): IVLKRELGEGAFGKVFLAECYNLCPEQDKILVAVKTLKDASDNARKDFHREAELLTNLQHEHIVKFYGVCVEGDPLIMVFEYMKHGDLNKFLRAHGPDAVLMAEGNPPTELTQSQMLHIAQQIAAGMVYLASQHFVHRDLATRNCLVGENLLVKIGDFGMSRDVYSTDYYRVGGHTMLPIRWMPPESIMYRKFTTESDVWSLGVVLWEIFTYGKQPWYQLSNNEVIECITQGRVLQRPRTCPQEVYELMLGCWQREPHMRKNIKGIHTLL
Experimental: (§1) First, 250 nL of compound dissolved in DMSO (100-fold of the desired concentration) was dispensed into a 384-well plate. A 12.5 μL substrate solution containing ATP (2 mM) and fluorogenic phosphorylation substrate AQT0101 ([…] for ALK and ROS, AssayQuant) or AQT0104 (26 μM for TRKB, AssayQuant) in buffer (50 mM HEPES pH 7.5, […], 0.5 mM EGTA, 10 mM MgCl2) was added and mixed thoroughly. Then, a 12.5 μL kinase solution containing ALK (1.5 nM, Carna, 08-518), ALK I1171N/D1203N (4 nM, SignalChem, custom-made), ROS1 (0.6 nM, Carma, 08-163), ROS1-G2032R (0.5 nM, SignalChem, R14-121BG), or TRKB-wt (1.5 nM, SignalChem, N17-11G) kinase domains in buffer ([…] pH 7.5, 0.01% Brij-[…], 0.4 mg/mL BSA, 0.5 mM EGTA, and 10 mM MgCl2) was added and mixed thoroughly. The plate was sealed and read by SpectraMax Paradigm at λ=485 nm every 2 minutes for 120 minutes at 30° C. Initial rates of reaction (v) were calculated from the change in fluorescence intensity over time during the initial, linear portion of the reaction. Finally, apparent inhibitory constants (Ki^app) were determined from regression of v and I (inhibitor concentration) to Morrison Equation (E=enzyme concentration): […]
(§2) Compound potency can be interpreted by binning Ki^app values against the targets: bin A for high potency, Ki^app<50 nM; bin B for medium potency, 50 nM≤Ki^app<500 nM; and bin C for low potency, Ki^app≥500 nM. […] “nd” means not determined.

ALK I1171N/D1203N = ALK I1171N/D1203N (Homo sapiens (Human), UniProt Q9UM73, D1203N/I1171N); experiment: Biochemical kinase assay, ALK I1171N/D1203N; conditions: apparent inhibitory constant, kinase domain, Morrison equation; read-out: ALK-I1171N-D1203N Ki^app
ALK I1171N/D1203N, sequence (Q9UM73 1116-1392 I1171N/D1203N): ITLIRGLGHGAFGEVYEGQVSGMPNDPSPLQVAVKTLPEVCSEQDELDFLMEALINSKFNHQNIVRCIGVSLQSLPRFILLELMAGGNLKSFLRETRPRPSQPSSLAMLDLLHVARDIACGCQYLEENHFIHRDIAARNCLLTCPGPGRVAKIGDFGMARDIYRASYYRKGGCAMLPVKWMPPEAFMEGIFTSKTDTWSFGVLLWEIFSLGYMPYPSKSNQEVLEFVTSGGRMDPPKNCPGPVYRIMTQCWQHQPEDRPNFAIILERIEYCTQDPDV
Experimental: as §1, §2

Ba/F3 EML4-ALK v1 I1171N = Ba/F3 EML4-ALK v1 I1171N (Homo sapiens (Human), UniProt Q9HC35+Q9UM73, I1171N); experiment: Ba/F3 cell proliferation assay, EML4-ALK v1 I1171N; assay type: cell-based; conditions: for IC50: Ba/F3 stable cells, 72 hours, CellTiter-Glo; for ETV6-TRKB / EML4-ALK v1 I1171N: TRKB selectivity, ratio of Ba/F3 IC50 values
Ba/F3 EML4-ALK v1 I1171N, sequence (Q9UM73 other isoform, or with tags, fused parts or gaps I1171N): as the sequence (Q9UM73 other isoform, or with tags, fused parts or gaps I1171N/D1203N) above, with N642D counted along it
Method in brief: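 Ba/F3 cells stably transformed with retroviral EML4-ALK v1 I1171N, selected by IL-3 withdrawal and puromycin, grown IL-3-free. Compounds added as 3-fold dilution series, 72 h incubation; viability by CellTiter-Glo luminescence. IC50 from percent inhibition by four-parameter logistic fit, binned A/B/C.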

[2] = Ba/F3 stable cells, 72 hours, CellTiter-Glo; read-out: ETV6-TRKB IC50

Ba/F3 ETV6-TRKB, sequence (Q16620 32-822 limits assumed, change not shown): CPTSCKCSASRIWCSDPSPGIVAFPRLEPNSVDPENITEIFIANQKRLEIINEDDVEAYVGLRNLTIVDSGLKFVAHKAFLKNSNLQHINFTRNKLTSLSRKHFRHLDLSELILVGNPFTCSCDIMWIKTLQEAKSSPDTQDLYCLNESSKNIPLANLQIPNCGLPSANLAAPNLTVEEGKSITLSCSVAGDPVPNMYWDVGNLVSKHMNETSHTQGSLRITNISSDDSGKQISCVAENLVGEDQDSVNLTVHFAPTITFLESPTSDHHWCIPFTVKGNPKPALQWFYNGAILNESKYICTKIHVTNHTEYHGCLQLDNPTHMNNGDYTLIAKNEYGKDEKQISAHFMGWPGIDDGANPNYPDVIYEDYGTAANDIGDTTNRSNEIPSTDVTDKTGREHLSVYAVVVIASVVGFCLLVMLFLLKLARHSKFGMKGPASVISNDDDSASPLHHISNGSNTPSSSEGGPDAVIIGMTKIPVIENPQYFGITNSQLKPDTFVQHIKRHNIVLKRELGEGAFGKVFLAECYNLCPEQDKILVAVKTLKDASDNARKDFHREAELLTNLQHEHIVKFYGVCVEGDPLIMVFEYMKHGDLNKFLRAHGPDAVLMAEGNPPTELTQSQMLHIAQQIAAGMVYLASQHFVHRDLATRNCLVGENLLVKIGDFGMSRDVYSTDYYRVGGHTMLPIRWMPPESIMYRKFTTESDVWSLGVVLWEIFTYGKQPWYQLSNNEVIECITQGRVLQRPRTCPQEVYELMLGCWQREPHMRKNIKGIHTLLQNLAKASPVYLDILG

SMILES | IC50 (Ba/F3 ETV6-TRKB; read-out: ETV6-TRKB IC50; Ba/F3 stable cells, 72 hours, CellTiter-Glo) | IC50 [1] | ETV6-TRKB / EML4-ALK v1 I1171N/D1203N [1] | Ki (TRKB-wt) | Ki (ALK I1171N/D1203N) | IC50 (Ba/F3 EML4-ALK v1 I1171N) | ETV6-TRKB / EML4-ALK v1 I1171N (Ba/F3 EML4-ALK v1 I1171N) | IC50 (Ba/F3 ETV6-TRKB; [2])
C[C@H]1Oc2cc(cnc2N)-c2c(CC3CC3)nn(C(=O)N(C)C)c2Cc2cccnc2-c2ccc(F)cc21 [Example 20, (R)-5-(N,N-dimethylcarbamoyl)-3-(cyclopropylmethyl)-17-fluoro-20-methyl-21-oxa-4,5,12,24-tetraazapentacyclo[20.3.1.0^2,^6.0^8,^13.0^14,^19]hexacosa-1(25),2(6),3,8(13),9,11,14,16,18,22(26),23-undecaen-23-ylamine] | 0.05 to 0.5 µM | 0.0001 to 0.05 µM | A (bin A for very high selectivity, ratio≥30-fold) | 0.05 to 0.5 µM | < 0.05 µM | 0.0001 to 0.05 µM | A (bin A for very high selectivity, ratio≥30-fold) | –
Cc1ocnc1-c1nn(CC2CC2)c2c1Cc1cccnc1-c1ccc(F)cc1[C@@H](C)Oc1cc-2cnc1N [Example 3, (20R)-3-(cyclopropylmethyl)-17-fluoro-20-methyl-5-(5-methyl-1,3-oxazol-4-yl)-21-oxa-3,4,12,24-tetraazapentacyclo[20.3.1.0^2,^6.0^8,^13.0^14,^19]hexacosa-1(25),2(6),4,8(13),9,11,14,16,18,22(26),23-undecaen-23-amine] | – | 0.0001 to 0.05 µM | B (bin B for high selectivity, ratio≥10-fold but<30) | 0.05 to 0.5 µM | < 0.05 µM | 0.0001 to 0.05 µM | A (bin A for very high selectivity, ratio≥30-fold) | > 0.5 µM
CCn1nc(C(N)=O)c2c1-c1cnc(N)c(c1)O[C@H](C)c1cc(F)ccc1-c1nn(C)cc1C2 [Example 5, (R)-22-amino-3-ethyl-16-fluoro-10-methyl-19-methyl-20-oxa-3,4,10,11,23-pentaazapentacyclo[19.3.1.0^2,6.0^8,12.0^13,18]pentacosa-1(24),2(6),4,8,11.13,15,17,21(25),22-decaene-5-carboxamide] | – | 0.05 to 0.5 µM | D (bin D for low selectivity, ratio<1) | < 0.05 µM | < 0.05 µM | 0.0001 to 0.05 µM | C (bin C for moderate selectivity, ratio≥1 but<10) | 0.05 to 0.5 µM
C[C@H]1Oc2cc(cnc2N)-c2c(c(C(=O)N(C)C)nn2CC2CCC2)Cc2cn(C)nc2-c2ccc(F)cc21 [Example 33, (19R)-22-amino-3-(cyclobutylmcthyl)-16-fluoro-N,N,10,19-tetramethyl-20-oxa-3,4,10,11,23-pentaazapentacyclo[19.3.1.0^2,^6.0^8,^12.0^13,^18]pentacosa-1(24),2(6),4,8,11,13,15,17,21(25),22-decaene-5-carboxamide] | – | 0.05 to 0.5 µM | A (bin A for very high selectivity, ratio≥30-fold) | ≥ 0.5 µM | < 0.05 µM | – | – | > 0.5 µM
C[C@H]1Oc2cc(cnc2N)-c2c(c(C(=O)N(C)CC(F)(F)F)nn2CC2CC2)Cc2cn(C)nc2-c2ccc(F)cc21 [Example 36, (19R)-22-amino-3-(cyclopropylmethyl)-16-fluoro-N,10,19-trimethyl-N-(2,2,2-trifluoroethyl)-20-oxa-3,4,10,11,23-pentaazapentacyclo[19.3.1.0^2,^6.0^8,^12.0^13,^18]pentacosa-1(24),2(6),4,8,11,13,15,17,21(25),22-decaene-5-carboxamide] | – | 0.05 to 0.5 µM | A (bin A for very high selectivity, ratio≥30-fold) | ≥ 0.5 µM | < 0.05 µM | – | – | > 0.5 µM
CC1CCCN1C(=O)c1nn(CC2CC2)c2c1Cc1cn(C)nc1-c1ccc(F)cc1[C@@H](C)Oc1cc-2cnc1N (stereo partly drawn) [Example 31, {(R)-22-amino-3-(cyclopropylmethyl)-16-fluoro-10-methyl-19-methyl-20-oxa-3,4,10,11,23-pentaazapentacyclo[19.3.1.0^2,^6.0^8,^12.0^13,^18]pentacosa-1(24),2(6),4,8,11, 13,15,17,21(25),22-decaen-5-yl}(2-methyl-1-pyrrolidinyl)methanone] | – | 0.0001 to 0.05 µM | A (bin A for very high selectivity, ratio≥30-fold) | ≥ 0.5 µM | < 0.05 µM | – | – | > 0.5 µM
C[C@H]1Oc2cc(cnc2N)-c2c(CC3CC3)nc(C(=O)N(C)C)n2Cc2cn(C)nc2-c2ccc(F)cc21 [Example 41, N,N-dimethyl-(R)-22-amino-3-(cyclopropylmethyl)-16-fluoro-10-methyl-19-methyl-20-oxa-4,6,10,11,23-pentaazapentacyclo[19.3.1.0^2,6.0^8,12.0^13,18]pentacosa-1(24),2,4,8,11,13,15,17,21(25),22-decaene-5-carboxamide] | – | 0.0001 to 0.05 µM | A (bin A for very high selectivity, ratio≥30-fold) | ≥ 0.5 µM | < 0.05 µM | – | – | > 0.5 µM
CC(=O)c1nn(CC2CC2)c2c1Cc1cn(C)nc1-c1ccc(F)cc1[C@@H](C)Oc1cc-2cnc1N [Example 16, 1-[(19R)-22-amino-3-(cyclopropylmethyl)-16-fluoro-10,19-dimethyl-20-oxa-3.4.10,11,23-pentaazapentacyclo[19.3.1.0^2,6.0^8,12.0^13,18]pentacosa-1(24),2(6),4,8,11.13,15,17,21(25),22-decaen-5-yl]ethan-1-one] | – | 0.05 to 0.5 µM | C (bin C for moderate selectivity, ratio≥1 but<10) | ≥ 0.5 µM | 0.05 to 0.5 µM | – | – | > 0.5 µM
Cc1cc2n(n1)-c1ccc(F)cc1[C@@H](C)Oc1cc(cnc1N)-c1c(c(C(=O)N(C)C)nn1CC1CC1)C2 [Example 42, N,N-dimethyl-(R)-22-amino-3-(cyclopropylmethyl)-16-fluoro-10,19-dimethyl-20-oxa-3,4,11,12,23-pentaazapentacyclo[19.3.1.0^2,^6.0^8,^12.0^13,^18]pentacosa-1(24),2(6),4,8,10,13,15,17,21(25),22-decaene-5-carboxamide] | – | 0.05 to 0.5 µM | A (bin A for very high selectivity, ratio≥30-fold) | ≥ 0.5 µM | < 0.05 µM | – | – | > 0.5 µM
C[C@H]1Oc2cc(cnc2N)-c2c(c(S(C)(=O)=O)nn2CC2CC2)Cc2cn(C)nc2-c2ccc(F)cc21 [Example 2, (R)-3-(cyclopropylmethyl)-16-fluoro-5-mesyl-10-methyl-19-methyl-20-oxa-3,4,10,11,23-pentaazapentacyclo[19.3.1.0^2,6.0^8,12.0^13,18]pentacosa-1(24),2(6),4,8,11,13,15,17,21(25),22-decaen-22-ylamine] | – | 0.05 to 0.5 µM | C (bin C for moderate selectivity, ratio≥1 but<10) | ≥ 0.5 µM | 0.05 to 0.5 µM | – | – | > 0.5 µM
C[C@H]1Oc2cc(cnc2N)-c2c(c(C(=O)N3CC(F)(F)C3)nn2CC2CC2)Cc2cn(C)nc2-c2ccc(F)cc21 [Example 13, {(R)-22-amino-3-(cyclopropylmethyl)-16-fluoro-10-methyl-19-methyl-20-oxa-3,4,10,11,23-pentaazapentacyclo[19.3.1.0^2,^6.0^8,^12.0^13,^18]pentacosa-1(24),2(6),4,8,11,13,15, 17,21(25),22-decaen-5-yl}(3,3-difluoro-1-azetidinyl)methanone] | – | 0.05 to 0.5 µM | C (bin C for moderate selectivity, ratio≥1 but<10) | 0.05 to 0.5 µM | < 0.05 µM | – | – | > 0.5 µM
